Experimental data: patent USRE48461E1, “Modulation of androgen receptor expression” (Ionis Pharmaceuticals, Inc., priority 2012, dated 2021)

Experiments:
Assay type in all cases: cell-based, human
C4-2B cells = assay: C4-2B cell proliferation, ASO in combination with MDV3100 (Example 21); details: Homo sapiens, read-out: inhibited proliferation, MDV3100 with control oligonucleotide ISIS 549148
Experimental: C4-2B cells were plated at 1,000 cells per well. […] ISIS 549148 was included as a negative control. […] After a treatment period of 5 days, the proliferative capacity of the cancer cells was measured with CellTiter 96® AQueous One Solution Cell Proliferation kit (Promega), following the manufacturer's instructions. […]

AR V7 variant mRNA = assay: AR V7 variant RNA in 22RV1 cells; details: 48 hrs
[1] = system: prostate-specific antigen (PSA) mRNA; assay: PSA mRNA levels in LMR20 cells; details: for PSA mRNA levels (% baseline value) after treatment with DHT / PSA mRNA levels (% baseline value) after treatment with R1881 / PSA mRNA levels (% baseline value) of cells without AR agonist treatment: LMR20 cells; for PSA mRNA levels (% baseline value) after treatment with DHT: DHT 10 nM 72 hrs; for PSA mRNA levels (% baseline value) after treatment with R1881: R1881 10 nM 72 hrs; for PSA mRNA levels (% baseline value) of cells without AR agonist treatment: no AR agonist
Experimental: LMR20 cells were plated at 1,500 cells per well in phenol red-free medium with CSS. […] Results are presented in Tables 43-45 as mRNA levels expressed as a percentage of the baseline values. mRNA levels may be lowered or increased after treatment.

TMPRSS2 mRNA [2] = assay: TMPRSS2 expression in LNCaP cells (complete, CSS+DHT medium); details: for Percent inhibition of TMPRSS2 expression in LNCaP cells cultured in CSS + DHT medium: CSS + DHT (1 nM) medium, 48 hrs; for Percent inhibition of TMPRSS2 expression in LNCaP cells cultured in complete medium: 48 hours
Experimental: Cells were plated at 1,000 cells per well. […] ISIS 549148 was included as a negative control. […] After an incubation period of 48 hours, RNA levels of AR, PSA and TMPRSS2 were measured.
Cells were plated at 2,000 cells per well and cultured in phenol red-free RPMI supplemented with 5% charcoal stripped serum (Gibco) media for 16 hours. […] ISIS 549148 was included as a negative control. […] After an incubation period of 4 hrs, DHT was added to the medium to a final concentration of 1 nM as indicated. RNAs were collected 48 hrs later and levels of AR, PSA and TMPRSS2 were measured. In the absence of DHT, AR expression in LNCaP cells was 95%, PSA expression was 7% and TMPRSS2 expression was 24% compared to the untreated control.

TMPRSS2 mRNA [3] = assay: Time-course TMPRSS2 expression in C4-2B cells
Experimental: C4-2B cells were plated at 1,000 cells per well in complete medium. […] ISIS 549148 was included as a negative control. […] After a treatment period of 8 hours, 24 hours, and 48 hours, AR expression was measured with primer probe set hAR-LTS00943. Results are presented in Tables 70-72 as percent expression of AR, relative to non-treated cells.
Expression analysis of prostate-specific antigen (PSA) and TMPRSS2 were also analyzed. Results are presented in Tables 73-75 as percent inhibition of PSA expression and Tables 76-78 as percent inhibition of TMPRSS2 expression, relative to non-treated cells.

TMPRSS2 mRNA [4] = assay: TMPRSS2 expression in C4-2 cells; details: 48 hrs; for Percent inhibition of TMPRSS2 expression: C4-2 cells, CSS + DHT medium
Experimental: Cells were plated at 1,000 cells per well. […] After an incubation period of 48 hrs, RNA levels of AR, PSA and TMPRSS2 were measured.
Cells were plated at 2,000 cells per well and cultured in CSS media with 1 nM DHT. […] After an incubation period of 48 hrs, RNA levels of AR, PSA and TMPRSS2 were measured.

AR mRNA = assay: Time-course AR mRNA expression in C4-2B cells (8, 24, 48 hours); details: for Percent expression of AR compared to the control group in 8 hours / Percent expression of AR compared to the control group in 24 hours / Percent expression of AR compared to the control group in 48 hours: C4-2B cells
Experimental: C4-2B cells were plated at 1,000 cells per well in complete medium. […] After a treatment period of 8 hours, 24 hours, and 48 hours, AR expression was measured with primer probe set hAR-LTS00943.

cleaved PARP = assay: Cleaved PARP western blot in VCaP cells

## CNC(=O)c1ccc(N2C(=S)N(c3ccc(C#N)c(C(F)(F)F)c3)C(=O)C2(C)C)cc1F [MDV3100, 4-(3-(4-cyano-3-(trifluoromethyl)phenyl)-5,5-dimethyl-4-oxo-2-thioxoimidazolidin-1-yl)-2-fluoro-N-methylbenzamide, reference compound]
C4-2B cells
  inhibition at 0.08 µM: 0%
  inhibition at 0.4 µM: 6%
AR V7 variant mRNA; CSS + DHT medium, 0.04 μM
  Percent of gene expression, AR V7 variant: 16%
AR V7 variant mRNA; CSS + DHT medium, 0.2 μM
  Percent of gene expression, AR V7 variant: 17%
AR V7 variant mRNA; CSS + DHT medium, 1.0 μM
  Percent of gene expression, AR V7 variant: 19%
AR V7 variant mRNA; CSS + DHT medium, 5.0 μM
  Percent of gene expression, AR V7 variant: 12%
AR V7 variant mRNA; complete medium, 0.04 μM
  Percent of gene expression, AR V7 variant: 106%
AR V7 variant mRNA; complete medium, 0.2 μM
  Percent of gene expression, AR V7 variant: 98%
AR V7 variant mRNA; complete medium, 1.0 μM
  Percent of gene expression, AR V7 variant: 87%
AR V7 variant mRNA; complete medium, 5.0 μM
  Percent of gene expression, AR V7 variant: 77%
[1]; ASO 0.04 μM
  PSA mRNA levels (% baseline value) after treatment with DHT: 124 % baseline value
  PSA mRNA levels (% baseline value) after treatment with R1881: 84 % baseline value
  PSA mRNA levels (% baseline value) of cells without AR agonist treatment: 98 % baseline value
[1]; ASO 0.20 μM
  PSA mRNA levels (% baseline value) after treatment with DHT: 108 % baseline value
  PSA mRNA levels (% baseline value) after treatment with R1881: 101 % baseline value
  PSA mRNA levels (% baseline value) of cells without AR agonist treatment: 93 % baseline value
[1]; ASO 1.0 μM
  PSA mRNA levels (% baseline value) after treatment with DHT: 95 % baseline value
  PSA mRNA levels (% baseline value) after treatment with R1881: 92 % baseline value
  PSA mRNA levels (% baseline value) of cells without AR agonist treatment: 90 % baseline value
[1]; ASO 5.0 μM
  PSA mRNA levels (% baseline value) after treatment with DHT: 95 % baseline value
  PSA mRNA levels (% baseline value) after treatment with R1881: 87 % baseline value
  PSA mRNA levels (% baseline value) of cells without AR agonist treatment: 113 % baseline value
[1]; with or without DHT/R1881
  PSA mRNA levels in LMR20 cells: did not reduce either PSA or TMPRSS2 mRNA levels
TMPRSS2 mRNA [2]; 0.04 μM
  Percent inhibition of TMPRSS2 expression in LNCaP cells cultured in CSS + DHT medium: 8%
  Percent inhibition of TMPRSS2 expression in LNCaP cells cultured in complete medium: 0%
TMPRSS2 mRNA [2]; 0.2 μM
  Percent inhibition of TMPRSS2 expression in LNCaP cells cultured in CSS + DHT medium: 24%
  Percent inhibition of TMPRSS2 expression in LNCaP cells cultured in complete medium: 0%
TMPRSS2 mRNA [2]; 1 μM
  Percent inhibition of TMPRSS2 expression in LNCaP cells cultured in CSS + DHT medium: 60%
  Percent inhibition of TMPRSS2 expression in LNCaP cells cultured in complete medium: 34%
TMPRSS2 mRNA [2]; 5.0 μM
  Percent inhibition of TMPRSS2 expression in LNCaP cells cultured in CSS + DHT medium: 69%
  Percent inhibition of TMPRSS2 expression in LNCaP cells cultured in complete medium: 39%
TMPRSS2 mRNA [3]; 0.04 μM
  Percent inhibition of TMPRSS2 expression compared to the control group in 8 hours: 0%
  Percent inhibition of TMPRSS2 expression compared to the control group in 24 hours: 23%
  Percent inhibition of TMPRSS2 expression compared to the control group in 48 hours: 5%
TMPRSS2 mRNA [3]; 0.2 μM
  Percent inhibition of TMPRSS2 expression compared to the control group in 8 hours: 6%
  Percent inhibition of TMPRSS2 expression compared to the control group in 24 hours: 31%
  Percent inhibition of TMPRSS2 expression compared to the control group in 48 hours: 16%
TMPRSS2 mRNA [3]; 1 μM
  Percent inhibition of TMPRSS2 expression compared to the control group in 8 hours: 45%
  Percent inhibition of TMPRSS2 expression compared to the control group in 24 hours: 63%
  Percent inhibition of TMPRSS2 expression compared to the control group in 48 hours: 46%
TMPRSS2 mRNA [3]; 5.0 μM
  Percent inhibition of TMPRSS2 expression compared to the control group in 8 hours: 52%
  Percent inhibition of TMPRSS2 expression compared to the control group in 24 hours: 72%
  Percent inhibition of TMPRSS2 expression compared to the control group in 48 hours: 59%
TMPRSS2 mRNA [3]; time course
  TMPRSS2 expression: also reduced downstream gene expressions but not as potently as that with the ISIS oligonucleotides
TMPRSS2 mRNA [4]; 0.04 μM
  Percent inhibition of TMPRSS2 expression: 9%
  Percent inhibition of TMPRSS2 expression in C4-2 cells cultured in complete medium: 10%
TMPRSS2 mRNA [4]; 0.2 μM
  Percent inhibition of TMPRSS2 expression: 0%
  Percent inhibition of TMPRSS2 expression in C4-2 cells cultured in complete medium: 20%
TMPRSS2 mRNA [4]; 1 μM
  Percent inhibition of TMPRSS2 expression: 44%
  Percent inhibition of TMPRSS2 expression in C4-2 cells cultured in complete medium: 44%
TMPRSS2 mRNA [4]; 5.0 μM
  Percent inhibition of TMPRSS2 expression: 78%
  Percent inhibition of TMPRSS2 expression in C4-2 cells cultured in complete medium: 67%
AR mRNA; 0.04 μM
  Percent expression of AR compared to the control group in 8 hours: 99%
  Percent expression of AR compared to the control group in 24 hours: 88%
  Percent expression of AR compared to the control group in 48 hours: 94%
AR mRNA; 0.2 μM
  Percent expression of AR compared to the control group in 8 hours: 100%
  Percent expression of AR compared to the control group in 24 hours: 99%
  Percent expression of AR compared to the control group in 48 hours: 94%
AR mRNA; 1 μM
  Percent expression of AR compared to the control group in 8 hours: 92%
  Percent expression of AR compared to the control group in 24 hours: 96%
  Percent expression of AR compared to the control group in 48 hours: 113%
AR mRNA; 5.0 μM
  Percent expression of AR compared to the control group in 24 hours: 84%
  Percent expression of AR compared to the control group in 48 hours: 126%
AR mRNA; C4-2B cells, 8, 24 and 48 hours
  AR expression: increased AR expression at the 48 hour time-point
Cleaved PARP
  cleaved PARP levels (western blot): increased in a dose-dependent manner
